The term IC50 denotes the concentration needed to halve the response being measured. As usually defined, the GI50 is the concentration at which growth is held to half of that of the control.

Read-outs that look alike come from different tables or passages of the source.

For experiment [1], the target named is Recombinant His-tagged human PARG protein (Homo sapiens (Human), UniProt Q86W56). The experiment can be described thus: PARG enzymatic assay (TFMU-ADPr fluorescence). It counts as biochemical. The note with it: 1 nM enzyme, 200 μM TFMU-ADPr, read after 30 minutes. In short, it runs like this: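 Sf21-expressed His-tagged human PARG (1 nM) preincubated 15 min with compound (8-point series, 0.5% DMSO) in pH 7.4 phosphate/KCl/β-mercaptoethanol buffer, then 200 μM TFMU-ADPr added. Fluorescence (ex 380/em 535 nm) read after 30 min; IC50 from 4-parameter logistic fit, no-enzyme control as bottom.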
Sequence of Recombinant His-tagged human PARG protein (Q86W56 whole entry): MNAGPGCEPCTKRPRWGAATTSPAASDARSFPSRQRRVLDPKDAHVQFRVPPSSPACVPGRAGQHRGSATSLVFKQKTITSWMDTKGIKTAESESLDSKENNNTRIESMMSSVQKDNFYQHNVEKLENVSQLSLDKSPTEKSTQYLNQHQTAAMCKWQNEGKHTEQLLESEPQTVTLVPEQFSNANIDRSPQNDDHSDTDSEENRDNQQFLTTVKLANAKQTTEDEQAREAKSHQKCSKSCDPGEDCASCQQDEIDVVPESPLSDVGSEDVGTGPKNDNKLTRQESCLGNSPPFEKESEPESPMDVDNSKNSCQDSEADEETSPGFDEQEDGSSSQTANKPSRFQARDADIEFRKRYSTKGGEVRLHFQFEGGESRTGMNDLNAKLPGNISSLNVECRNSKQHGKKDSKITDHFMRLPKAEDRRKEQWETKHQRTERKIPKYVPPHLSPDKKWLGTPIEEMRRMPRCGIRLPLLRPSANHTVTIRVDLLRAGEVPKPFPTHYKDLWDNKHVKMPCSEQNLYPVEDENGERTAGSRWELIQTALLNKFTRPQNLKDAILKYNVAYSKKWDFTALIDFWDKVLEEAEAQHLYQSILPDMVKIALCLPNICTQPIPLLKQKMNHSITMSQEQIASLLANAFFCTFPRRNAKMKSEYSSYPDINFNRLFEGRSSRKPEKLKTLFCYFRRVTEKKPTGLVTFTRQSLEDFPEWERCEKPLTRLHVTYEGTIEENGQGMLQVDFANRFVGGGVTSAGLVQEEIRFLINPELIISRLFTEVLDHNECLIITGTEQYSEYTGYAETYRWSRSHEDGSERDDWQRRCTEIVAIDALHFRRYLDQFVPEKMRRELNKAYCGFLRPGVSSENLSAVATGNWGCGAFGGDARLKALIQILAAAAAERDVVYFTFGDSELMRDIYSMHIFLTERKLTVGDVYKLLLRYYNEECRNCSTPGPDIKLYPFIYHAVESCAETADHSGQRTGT

Experiment [2] addresses human PARG (PARG-NanoLuc fusion in HEK293T cells) (Homo sapiens (Human), UniProt Q86W56). The experiment in a line: PARG NanoBRET-based cellular target engagement assay. The note with it: HEK293T cells transfected with PARG-NanoLuc, NanoBRET probe 0.89 μM, 2 hours; read-out: PARG TE IC50. It counts as cell-based. In short, it runs like this: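 HEK293T cells transiently expressing full-length human PARG with C-terminal NanoLuc, plated 24 h, then given compound (8-point series, 0.5% DMSO) for 15 min at room temperature. NanoBRET tracer added at 0.89 μM final, 2 h at 37° C.; BRET ratio (460/645 nm) fitted by 4-parameter logistic to give IC50.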
A general note: BRET reads energy transfer from a luciferase to a nearby fluorophore.

A further experiment has as its system NCI-H1650. The experiment in a line: Modified cell proliferation assay (CellTiter-Glo), NCI-H1650. As to conditions: modified protocol, 384-well, 300 cells per well, 120 h, highest concentration tested 30000 nM, read-out: NCI-H1650 GI50 (high PARG dependency). It counts as cell-based. The essentials:
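NCI-H1650 or RMUG-S cells seeded at 300 cells/well in RPMI1640 with 10% FCS, compounds added after 24 h, then 120 h at 37 °C/5% CO2. Viability read by CellTiter-Glo luminescence; IC50 from fitted dose-response inflection point. Z′≥0.5 required.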

Sequence of human PARG (PARG-NanoLuc fusion in HEK293T cells) (Q86W56 whole entry, the tested form may be a part): as the sequence (Q86W56 whole entry) above

Take `CO/N=c1\[nH]c2ccc(S(=O)(=O)NC3(C)COC3)cc2c(=O)n1Cc1cnn(C)c1` [Example 2, 2-methoxyimino-N-(3-methyloxetan-3-yl)-3-[(1-methylpyrazol-4-yl)methyl]-4-oxo-1H-quinazoline-6-sulfonamide]: the IC50 in experiment [1] fell in the range of 30 to 99 nM; in experiment [2], 100 to 1000 nM. Moreover, in the experiment on NCI-H1650 (Homo sapiens, NCI-H1650), the GI50 fell in the range of 500 to 2000 nM.

Regarding `CO/N=c1\[nH]c2ccc(S(=O)(=O)NC3(C)CC3)cc2c(=O)n1Cc1cnc(C)s1` [Example 1, 2-methoxyimino-N-(1-methylcyclopropyl)-3-[(2-methylthiazol-5-yl)methyl]-4-oxo-1H-quinazoline-6-sulfonamide], the half-inhibitory concentration (IC50) in experiment [1] is less than 30 nM; in experiment [2] it was 30 to 99 nM. Besides, the concentration for 50% growth inhibition (GI50) with NCI-H1650 (Homo sapiens, NCI-H1650) lay within 500 to 2000 nM.

With `CON=c1[nH]c2c(N3CCN(C(=O)C4(C)CC4)[C@H](C)C3)cc(S(=O)(=O)NC3(C)CC3)cc2c(=O)n1Cc1cnn(C)c1` [Example 8, 2-methoxyimino-N-(1-methylcyclopropyl)-3-[(1-methylpyrazol-4-yl)methyl]-4-oxo-8-[(3R)-3-methyl-4-(1-methylcyclopropanecarbonyl)piperazin-1-yl]-1H-quinazoline-6-sulfonamide], the half-inhibitory concentration (IC50) in experiment [1] and in experiment [2] was less than 30 nM throughout. For the same compound, the GI50 in the experiment on NCI-H1650 is less than 500 nM.

As for `CO/N=c1\[nH]c2c(-c3ccc(C(=O)N(C)C)cc3)cc(S(=O)(=O)NC3(C)CC3)cc2c(=O)n1Cc1cnn(C)c1` [Example 5, 4-[2-methoxyimino-6-[(1-methylcyclopropyl)sulfamoyl]-3-[(1-methylpyrazol-4-yl)methyl]-4-oxo-1H-quinazolin-8-yl]-N,N-dimethyl-benzamide], the IC50 in experiment [1] and in experiment [2] was less than 30 nM in each case. For the same compound, the GI50 in the experiment with NCI-H1650 (Homo sapiens, NCI-H1650) is greater than 2000 nM.

For `Cc1nc(C)c(CO/N=c2\[nH]c3ccc(S(=O)(=O)NC4(C)CC4)cc3c(=O)n2Cc2cnn(C)c2)s1` [Example 3, 2-[(2,4-dimethylthiazol-5-yl)methoxyimino]-N-(1-methylcyclopropyl)-3-[(1-methylpyrazol-4-yl)methyl]-4-oxo-1H-quinazoline-6-sulfonamide], the half-inhibitory concentration (IC50) in experiment [1] is less than 30 nM; in experiment [2] it was 100 to 1000 nM. Moreover, the GI50 in the experiment with NCI-H1650 (Homo sapiens, NCI-H1650) is greater than 2000 nM.

As to `CO/N=c1\[nH]c2c(N3CCN[C@H](C)C3)cc(S(=O)(=O)NC3(C)CC3)cc2c(=O)n1Cc1cnn(C)c1` [Example 7, 2-methoxyimino-N-(1-methylcyclopropyl)-3-[(1-methylpyrazol-4-yl)methyl]-4-oxo-8-[(3R)-3-methylpiperazin-1-yl]-1H-quinazoline-6-sulfonamide], the half-inhibitory concentration (IC50) in experiment [1] and in experiment [2] was less than 30 nM each time. The GI50 in the experiment on NCI-H1650 (Homo sapiens, NCI-H1650) is less than 500 nM.

Values taken from patent publication US20260042754A1, “Substituted Bicyclic Heteroaryl Sulfonamide Derivatives for the Treatment of Cancer” (NODUS ONCOLOGY LIMITED, priority 2022, published 2026).
